Measured values as given in ChEMBL document CHEMBL1909046, “DrugMatrix in vitro pharmacology data”.

Legend:
[1] = target: 5-hydroxytryptamine receptor 6 (Homo sapiens, UniProt P50406); assay type: cell membranes, HeLa, Membrane; settings: for Ki: read-out: Ki; as to all read-outs here: in other assays of this panel Not Active means under 50% inhibition at 10 µM
[2] = target: Cytochrome P450 3A4 (Homo sapiens, UniProt P08684); settings: bti-tn-5b1-4; also: in other assays of this panel Not Active means under 50% inhibition at 10 µM
Sequence of Cytochrome P450 3A4 (P08684 whole entry): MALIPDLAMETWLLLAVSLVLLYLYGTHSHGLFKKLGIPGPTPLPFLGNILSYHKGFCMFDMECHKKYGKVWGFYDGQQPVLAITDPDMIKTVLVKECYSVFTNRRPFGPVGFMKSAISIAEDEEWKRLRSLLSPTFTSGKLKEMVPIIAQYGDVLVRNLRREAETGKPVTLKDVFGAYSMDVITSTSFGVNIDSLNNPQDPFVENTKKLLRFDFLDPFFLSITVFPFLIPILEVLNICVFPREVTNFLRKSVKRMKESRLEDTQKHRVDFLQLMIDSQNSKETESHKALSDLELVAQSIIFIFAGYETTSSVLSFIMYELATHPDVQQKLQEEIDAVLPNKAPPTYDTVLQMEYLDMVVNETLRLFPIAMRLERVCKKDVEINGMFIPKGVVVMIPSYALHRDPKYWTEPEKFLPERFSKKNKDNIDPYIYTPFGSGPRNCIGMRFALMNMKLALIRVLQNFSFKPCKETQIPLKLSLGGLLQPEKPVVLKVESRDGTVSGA

[3] = target: 5-hydroxytryptamine receptor 4 (Cavia porcellus, UniProt O70528); assay type: cell membranes, Dunkin-Hartley, Striatum, Membrane; also: in other assays of this panel Not Active means under 50% inhibition at 10 µM
Sequence of 5-hydroxytryptamine receptor 4 (O70528 whole entry): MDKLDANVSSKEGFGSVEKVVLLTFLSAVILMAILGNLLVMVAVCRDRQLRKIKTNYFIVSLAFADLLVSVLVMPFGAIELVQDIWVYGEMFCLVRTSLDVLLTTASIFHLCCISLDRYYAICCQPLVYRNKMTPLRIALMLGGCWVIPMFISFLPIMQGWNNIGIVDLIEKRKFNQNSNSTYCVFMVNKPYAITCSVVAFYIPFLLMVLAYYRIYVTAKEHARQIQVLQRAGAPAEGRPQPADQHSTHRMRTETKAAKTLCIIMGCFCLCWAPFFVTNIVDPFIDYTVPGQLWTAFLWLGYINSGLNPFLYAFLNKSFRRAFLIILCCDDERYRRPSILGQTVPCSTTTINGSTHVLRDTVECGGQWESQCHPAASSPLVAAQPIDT

[4] = target: T1, Type-2 angiotensin II receptor (Homo sapiens, UniProt P50052); assay type: cell-based; settings: cho-k1; also: in other assays of this panel Not Active means under 50% inhibition at 10 µM
T1 sequence (P50052 whole entry): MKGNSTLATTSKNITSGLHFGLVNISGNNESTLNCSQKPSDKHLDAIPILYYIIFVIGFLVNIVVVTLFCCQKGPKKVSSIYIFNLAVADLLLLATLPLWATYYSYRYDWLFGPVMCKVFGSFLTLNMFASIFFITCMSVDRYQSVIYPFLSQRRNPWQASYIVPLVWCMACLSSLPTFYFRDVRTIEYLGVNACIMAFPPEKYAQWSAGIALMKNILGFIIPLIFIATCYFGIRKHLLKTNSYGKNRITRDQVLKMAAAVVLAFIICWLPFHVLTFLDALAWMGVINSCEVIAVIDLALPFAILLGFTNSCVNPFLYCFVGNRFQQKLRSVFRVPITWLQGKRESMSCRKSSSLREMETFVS

[5] = target: Melanocortin receptor 4 (Homo sapiens, UniProt P32245); assay type: cell membranes, HEK293, Membrane; also: in other assays of this panel Not Active means under 50% inhibition at 10 µM
Sequence of Melanocortin receptor 4 (P32245 whole entry): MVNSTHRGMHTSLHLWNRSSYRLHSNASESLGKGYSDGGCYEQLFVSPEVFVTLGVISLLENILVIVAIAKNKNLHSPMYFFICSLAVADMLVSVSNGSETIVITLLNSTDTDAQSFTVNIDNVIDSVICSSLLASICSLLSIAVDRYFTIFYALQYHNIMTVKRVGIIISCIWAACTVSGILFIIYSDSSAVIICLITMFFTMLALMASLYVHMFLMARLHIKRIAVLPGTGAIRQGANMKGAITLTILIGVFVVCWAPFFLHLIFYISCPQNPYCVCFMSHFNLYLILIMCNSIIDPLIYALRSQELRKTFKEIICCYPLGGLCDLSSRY

[6] = DRUGMATRIX: Glutamate, Kainate radioligand binding (ligand: [3H] Kainic acid); assay type: cell membranes, Rattus norvegicus, Wistar, Brain, Membrane; settings: Not Active = under 50% inhibition at 10 µM
[7] = target: T2, Cholecystokinin receptor type A (Homo sapiens, UniProt P32238); assay type: cell membranes, Membrane; settings: 1321-n1; also: in other assays of this panel Not Active means under 50% inhibition at 10 µM
T2 sequence (P32238 whole entry): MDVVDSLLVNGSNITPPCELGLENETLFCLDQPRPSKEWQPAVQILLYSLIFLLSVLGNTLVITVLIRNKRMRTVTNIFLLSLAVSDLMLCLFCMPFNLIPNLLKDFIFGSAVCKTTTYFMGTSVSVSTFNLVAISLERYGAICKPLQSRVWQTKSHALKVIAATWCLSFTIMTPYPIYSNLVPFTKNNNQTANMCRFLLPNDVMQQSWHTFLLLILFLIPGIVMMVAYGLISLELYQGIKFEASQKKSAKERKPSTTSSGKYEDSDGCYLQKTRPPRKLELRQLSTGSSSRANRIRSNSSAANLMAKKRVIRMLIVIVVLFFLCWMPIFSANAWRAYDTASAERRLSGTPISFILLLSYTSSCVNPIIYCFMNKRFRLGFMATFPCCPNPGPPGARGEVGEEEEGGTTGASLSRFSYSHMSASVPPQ

Sequence of 5-hydroxytryptamine receptor 6 (P50406 whole entry): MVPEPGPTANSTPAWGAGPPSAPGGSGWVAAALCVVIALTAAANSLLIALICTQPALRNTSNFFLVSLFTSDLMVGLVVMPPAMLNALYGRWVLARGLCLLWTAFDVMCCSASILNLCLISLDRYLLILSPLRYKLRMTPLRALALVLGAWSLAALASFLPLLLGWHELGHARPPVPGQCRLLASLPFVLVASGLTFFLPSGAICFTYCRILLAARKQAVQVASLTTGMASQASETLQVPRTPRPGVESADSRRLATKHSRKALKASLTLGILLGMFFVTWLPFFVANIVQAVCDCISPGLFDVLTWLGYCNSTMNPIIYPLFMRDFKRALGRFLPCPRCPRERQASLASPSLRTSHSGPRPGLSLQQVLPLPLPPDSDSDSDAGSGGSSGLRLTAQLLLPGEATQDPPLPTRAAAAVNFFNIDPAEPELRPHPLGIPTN

Compound: CC(C)(C)NC(=O)[C@@H]1C[C@@H]2CCCC[C@@H]2CN1C[C@@H](O)[C@H](Cc1ccccc1)NC(=O)[C@H](CC(N)=O)NC(=O)c1ccc2ccccc2n1
- IC50 ([1]; hela): Not Active
- IC50 [2]: Not Active
- Ki [2]: Not Active
- IC50 [3]: Not Active
- IC50 [4]: Not Active
- IC50 ([5]; hek293): Not Active
- IC50 [6]: Not Active
- Ki [6]: Not Active
- IC50 [7]: Not Active

Compound: CC(=O)[C@@]1(O)CC[C@H]2[C@@H]3C[C@H](C)C4=CC(=O)CC[C@]4(C)[C@H]3CC[C@@]21C
- IC50 ([1]; hela): Not Active
- IC50 [2]: Not Active
- Ki [2]: Not Active
- IC50 [3]: Not Active
- IC50 [4]: Not Active
- IC50 ([5]; hek293): Not Active
- IC50 [6]: Not Active
- Ki [6]: Not Active
- IC50 [7]: Not Active

Compound: N[C@@H](Cc1ccc(N(CCCl)CCCl)cc1)C(=O)O
- IC50 ([1]; hela): Not Active
- IC50 [2]: Not Active
- Ki [2]: Not Active
- IC50 [3]: Not Active
- IC50 [4]: Not Active
- IC50 ([5]; hek293): Not Active
- IC50 [6]: Not Active
- Ki [6]: Not Active
- IC50 [7]: Not Active

Compound: CCCCc1oc2ccccc2c1C(=O)c1cc(I)c(OCCN(CC)CC)c(I)c1 [AMIODARONE]
- IC50 ([1]; read-out: IC50): 19400 nM
- Ki [1]: 9030 nM
- IC50 [3]: Not Active
- IC50 [4]: Not Active
- IC50 [7]: Not Active

Compound: OCCN(CCO)c1nc(N2CCCCC2)c2nc(N(CCO)CCO)nc(N3CCCCC3)c2n1 [DIPYRIDAMOLE]
- IC50 ([1]; hela): Not Active
- IC50 [3]: Not Active
- IC50 [4]: Not Active
- IC50 ([5]; hek293): Not Active
- IC50 [6]: Not Active
- Ki [6]: Not Active
- IC50 [7]: Not Active

Compound: Cc1oncc1C(=O)Nc1ccc(C(F)(F)F)cc1 [LEFLUNOMIDE]
- IC50 ([1]; hela): Not Active
- IC50 [2]: Not Active
- Ki [2]: Not Active
- IC50 [3]: Not Active
- IC50 [4]: Not Active
- IC50 ([5]; hek293): Not Active
- IC50 [6]: Not Active
- Ki [6]: Not Active
- IC50 [7]: Not Active

Compound: N[C@@H](Cc1cc(I)c(Oc2ccc(O)c(I)c2)c(I)c1)C(=O)O [LIOTHYRONINE]
- IC50 ([1]; hela): Not Active
- IC50 [3]: Not Active
- IC50 [4]: Not Active
- IC50 ([5]; hek293): Not Active
- IC50 [7]: Not Active

Compound: CCOC(=O)N1CCC(=C2c3ccc(Cl)cc3CCc3cccnc32)CC1 [LORATADINE]
- IC50 ([1]; hela): Not Active
- IC50 [3]: Not Active
- IC50 [4]: Not Active
- IC50 ([5]; hek293): Not Active
- IC50 [6]: Not Active
- Ki [6]: Not Active
- IC50 [7]: Not Active

Compound: Cn1ccnc1S [METHIMAZOLE]
- IC50 ([1]; hela): Not Active
- IC50 [3]: Not Active
- IC50 [4]: Not Active
- IC50 ([5]; hek293): Not Active
- IC50 [6]: Not Active
- Ki [6]: Not Active
- IC50 [7]: Not Active

Compound: CN1CCN(CCCN2c3ccccc3Sc3ccc(Cl)cc32)CC1 [PROCHLORPERAZINE]
- IC50 ([1]; read-out: IC50): 267 nM
- Ki [1]: 124 nM
- IC50 [2]: Not Active
- Ki [2]: Not Active
- IC50 ([3]; read-out: IC50): 1160 nM
- Ki ([3]; read-out: Ki): 194 nM
- IC50 [4]: Not Active
- IC50 ([5]; hek293): Not Active
- IC50 [7]: Not Active

Compound: CO[C@H]1/C=C/O[C@@]2(C)Oc3c(C)c(O)c4c(O)c(c(/C=N/N5CCN(C)CC5)c(O)c4c3C2=O)NC(=O)/C(C)=C\C=C\[C@H](C)[C@H](O)[C@@H](C)[C@@H](O)[C@@H](C)[C@H](OC(C)=O)[C@@H]1C [RIFAMPIN]
- IC50 ([1]; hela): Not Active
- IC50 [3]: Not Active
- IC50 [4]: Not Active
- IC50 ([5]; hek293): Not Active
- IC50 [6]: Not Active
- Ki [6]: Not Active
- IC50 [7]: Not Active

Compound: Nc1nc2ccc(OC(F)(F)F)cc2s1 [RILUZOLE]
- IC50 ([1]; hela): Not Active
- IC50 [3]: Not Active
- IC50 [4]: Not Active
- IC50 ([5]; hek293): Not Active
- IC50 [6]: Not Active
- Ki [6]: Not Active
- IC50 [7]: Not Active

Compound: Cc1nc2n(c(=O)c1CCN1CCC(c3noc4cc(F)ccc34)CC1)CCCC2 [RISPERIDONE]
- IC50 ([1]; hela): Not Active
- IC50 [3]: Not Active
- IC50 [4]: Not Active
- IC50 ([5]; hek293): Not Active
- IC50 [7]: Not Active

Compound: CC/C(=C(\c1ccccc1)c1ccc(OCCN(C)C)cc1)c1ccccc1 [TAMOXIFEN]
- IC50 ([1]; read-out: IC50): 2680 nM
- Ki [1]: 1240 nM
- IC50 [2]: Not Active
- Ki [2]: Not Active
- IC50 [3]: Not Active
- IC50 [4]: Not Active
- IC50 ([5]; read-out: IC50): 30500 nM
- Ki ([5]; read-out: Ki): 29300 nM
- IC50 [7]: Not Active
